One block for each molecule: values may come before it.
Legend:
[1] = target: thymidylate synthase (TS) (Homo sapiens, UniProt P04818); experiment: In vitro thymidylate synthase enzymatic assay; format: biochemical; conditions: compared with pemetrexed
[2] = test system: FAK; conditions: read-out: FAK inhibitor IC50; cited from earlier work
[3] = test system: PC-3 cells; experiment: Cell cycle analysis by PI staining, flow cytometry; format: cell-based, human; conditions: PC-3, at pre calculated IC50, 48 h
[4] = test system: PC-3 cells; experiment: Apoptosis analysis, Annexin V-propidium iodide flow cytometry; format: cell-based, human; conditions: PC-3, 48 h

Chain of thymidylate synthase (TS) (P04818 whole entry): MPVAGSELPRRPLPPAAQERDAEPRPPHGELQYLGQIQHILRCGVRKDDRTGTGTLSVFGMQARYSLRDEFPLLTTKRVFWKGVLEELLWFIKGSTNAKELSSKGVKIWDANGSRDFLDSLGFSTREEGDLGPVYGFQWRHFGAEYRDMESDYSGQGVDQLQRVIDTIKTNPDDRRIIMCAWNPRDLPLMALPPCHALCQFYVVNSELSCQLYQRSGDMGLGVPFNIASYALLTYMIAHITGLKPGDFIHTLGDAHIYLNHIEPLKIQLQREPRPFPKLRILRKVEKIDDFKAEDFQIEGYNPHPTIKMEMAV

TS inhibition in words [1]: comparable TS repression to pemetrexed
SMILES: C=CCc1ccc(OCc2nn(CN3CCCC3)c(=S)o2)c(OC)c1 [Compound 15, 5-((4-Allyl-2-methoxyphenoxy)methyl)-3-(pyrrolidin-1-ylmethyl)-1,3,4-oxadiazole-2(3H) Thione]

SMILES: N.N.[Cl][Pt][Cl] [Cisplatin]
IC50 [2]: 8.6 µM

SMILES: C=CCc1ccc(OCc2nn(CN3CCOCC3)c(=S)o2)c(OC)c1 [Compound 17, 5-((4-Allyl-2-methoxyphenoxy)methyl)-3-(morpholinomethyl)-1,3,4-oxadiazole-2(3H)-thione]
percentage of cell population at G1 phase [3]: 29.30% | percentage of cell population at G2 phase [3]: 8.61% | percentage of cell population at the S phase [3]: 62.07% | necrotic cells (R1, % Parent) [4]: 3.56%

Source: article PMC10233844 (ACS Omega, 2023)
